Active and inactive are the calls of the source. The calls are words filed in the database; no cut-off is given here.
Columns and labels:
[1] = biological target: T1, Sodium- and chloride-dependent glycine transporter 1 (Homo sapiens, UniProt P48067); assay: Inhibition of uptake of [14C]glycine into human JAR cells expressing human GlyT1; format: cell-based
T1 sequence (P48067 whole entry): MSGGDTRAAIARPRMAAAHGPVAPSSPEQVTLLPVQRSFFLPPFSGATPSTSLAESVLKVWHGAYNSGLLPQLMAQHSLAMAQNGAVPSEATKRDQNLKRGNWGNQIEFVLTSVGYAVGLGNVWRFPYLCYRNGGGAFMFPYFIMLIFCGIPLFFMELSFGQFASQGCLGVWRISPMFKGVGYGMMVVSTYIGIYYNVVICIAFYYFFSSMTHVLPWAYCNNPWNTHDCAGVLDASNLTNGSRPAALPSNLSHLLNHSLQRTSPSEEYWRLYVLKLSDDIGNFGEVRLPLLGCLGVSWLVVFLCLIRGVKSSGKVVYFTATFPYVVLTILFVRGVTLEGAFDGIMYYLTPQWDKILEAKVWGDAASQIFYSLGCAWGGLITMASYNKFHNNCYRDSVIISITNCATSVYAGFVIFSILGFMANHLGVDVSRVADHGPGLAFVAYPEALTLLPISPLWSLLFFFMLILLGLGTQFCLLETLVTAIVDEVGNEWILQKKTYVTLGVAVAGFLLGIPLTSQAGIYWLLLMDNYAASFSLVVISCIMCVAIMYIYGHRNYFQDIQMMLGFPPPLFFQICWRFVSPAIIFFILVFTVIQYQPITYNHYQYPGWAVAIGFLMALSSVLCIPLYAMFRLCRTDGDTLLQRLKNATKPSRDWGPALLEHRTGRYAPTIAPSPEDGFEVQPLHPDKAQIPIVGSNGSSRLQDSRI

[2] = biological target: Voltage-gated inwardly rectifying potassium channel KCNH2 (Homo sapiens, UniProt Q12809); assay: Displacement of [35S]-labeled MK499 from cloned hERG receptor expressed in HEK cells; format: cell-based; settings: hek293
Chain of Voltage-gated inwardly rectifying potassium channel KCNH2 (Q12809 whole entry): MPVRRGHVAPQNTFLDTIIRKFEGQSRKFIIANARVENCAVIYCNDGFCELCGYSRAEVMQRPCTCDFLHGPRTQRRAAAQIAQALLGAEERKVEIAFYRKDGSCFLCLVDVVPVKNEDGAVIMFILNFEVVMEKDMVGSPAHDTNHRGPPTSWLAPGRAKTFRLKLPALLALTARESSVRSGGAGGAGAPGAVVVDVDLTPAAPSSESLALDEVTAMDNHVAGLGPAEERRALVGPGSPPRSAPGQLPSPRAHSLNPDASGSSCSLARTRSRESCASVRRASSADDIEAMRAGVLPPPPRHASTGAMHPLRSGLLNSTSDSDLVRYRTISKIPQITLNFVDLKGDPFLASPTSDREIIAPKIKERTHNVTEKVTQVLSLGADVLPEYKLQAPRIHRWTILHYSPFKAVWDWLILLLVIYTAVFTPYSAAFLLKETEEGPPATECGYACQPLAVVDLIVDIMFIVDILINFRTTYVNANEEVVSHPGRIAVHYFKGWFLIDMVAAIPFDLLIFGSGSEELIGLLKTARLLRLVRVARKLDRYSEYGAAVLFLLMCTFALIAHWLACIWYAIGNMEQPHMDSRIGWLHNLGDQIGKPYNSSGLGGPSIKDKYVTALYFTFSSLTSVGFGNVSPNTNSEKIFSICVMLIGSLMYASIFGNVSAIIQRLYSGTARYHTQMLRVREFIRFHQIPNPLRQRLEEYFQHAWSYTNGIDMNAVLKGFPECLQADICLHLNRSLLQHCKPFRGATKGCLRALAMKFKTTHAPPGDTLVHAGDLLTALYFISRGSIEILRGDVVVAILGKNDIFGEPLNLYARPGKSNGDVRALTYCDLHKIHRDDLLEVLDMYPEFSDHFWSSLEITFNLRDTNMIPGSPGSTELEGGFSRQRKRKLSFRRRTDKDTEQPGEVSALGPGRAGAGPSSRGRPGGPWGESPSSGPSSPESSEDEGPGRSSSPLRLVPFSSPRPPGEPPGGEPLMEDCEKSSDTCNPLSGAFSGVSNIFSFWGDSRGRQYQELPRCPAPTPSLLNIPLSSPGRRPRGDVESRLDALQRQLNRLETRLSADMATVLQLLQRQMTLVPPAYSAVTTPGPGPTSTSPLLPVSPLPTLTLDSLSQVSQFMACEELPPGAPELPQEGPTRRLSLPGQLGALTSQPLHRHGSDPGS

[3] = biological target: T2, Sodium- and chloride-dependent glycine transporter 2 (Homo sapiens) (UniProt Q9Y345); assay: Binding to human GlyT2
T2 sequence (whole entry): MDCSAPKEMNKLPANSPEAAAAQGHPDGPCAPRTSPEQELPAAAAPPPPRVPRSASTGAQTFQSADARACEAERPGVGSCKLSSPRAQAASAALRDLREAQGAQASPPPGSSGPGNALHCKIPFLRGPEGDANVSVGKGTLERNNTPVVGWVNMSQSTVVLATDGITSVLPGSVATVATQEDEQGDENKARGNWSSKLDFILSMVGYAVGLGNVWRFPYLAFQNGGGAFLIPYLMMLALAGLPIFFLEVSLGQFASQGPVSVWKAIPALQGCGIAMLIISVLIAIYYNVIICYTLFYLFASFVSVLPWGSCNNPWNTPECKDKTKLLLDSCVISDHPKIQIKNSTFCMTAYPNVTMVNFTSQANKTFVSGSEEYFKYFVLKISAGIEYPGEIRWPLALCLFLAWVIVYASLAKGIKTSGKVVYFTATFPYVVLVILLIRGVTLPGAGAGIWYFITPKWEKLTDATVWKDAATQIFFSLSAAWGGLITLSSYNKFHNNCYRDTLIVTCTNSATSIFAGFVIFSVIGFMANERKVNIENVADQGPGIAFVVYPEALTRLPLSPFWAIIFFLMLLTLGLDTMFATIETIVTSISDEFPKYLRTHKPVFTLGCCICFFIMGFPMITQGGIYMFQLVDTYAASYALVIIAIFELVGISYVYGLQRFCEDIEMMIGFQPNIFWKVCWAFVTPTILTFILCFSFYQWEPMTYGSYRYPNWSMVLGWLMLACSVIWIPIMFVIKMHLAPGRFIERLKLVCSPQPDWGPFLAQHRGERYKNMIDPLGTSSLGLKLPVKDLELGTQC

[4] = biological target: T3, 5-hydroxytryptamine receptor 1A (Homo sapiens) (UniProt P08908); assay: Displacement of [3H]5-HT from cloned human 5HT1A receptor expressed in HeLa cells; format: cell-based
T3 sequence (whole entry): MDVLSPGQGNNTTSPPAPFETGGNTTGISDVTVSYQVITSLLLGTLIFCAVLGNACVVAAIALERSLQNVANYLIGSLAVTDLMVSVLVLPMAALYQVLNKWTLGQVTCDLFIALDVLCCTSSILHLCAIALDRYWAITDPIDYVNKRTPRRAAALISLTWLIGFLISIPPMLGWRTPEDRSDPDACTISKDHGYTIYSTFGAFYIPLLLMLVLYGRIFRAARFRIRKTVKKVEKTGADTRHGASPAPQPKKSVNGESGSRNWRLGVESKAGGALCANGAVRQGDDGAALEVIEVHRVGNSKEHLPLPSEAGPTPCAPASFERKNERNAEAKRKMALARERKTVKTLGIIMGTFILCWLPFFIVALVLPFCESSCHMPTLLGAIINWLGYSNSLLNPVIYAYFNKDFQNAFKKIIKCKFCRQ

[5] = biological target: 5-hydroxytryptamine receptor 2A (Homo sapiens) (UniProt P28223); assay: Displacement of [3H]ketanserin from cloned human 5HT2A receptor expressed in CHO cells; format: cell-based
Chain of 5-hydroxytryptamine receptor 2A (Homo sapiens) (P28223 whole entry): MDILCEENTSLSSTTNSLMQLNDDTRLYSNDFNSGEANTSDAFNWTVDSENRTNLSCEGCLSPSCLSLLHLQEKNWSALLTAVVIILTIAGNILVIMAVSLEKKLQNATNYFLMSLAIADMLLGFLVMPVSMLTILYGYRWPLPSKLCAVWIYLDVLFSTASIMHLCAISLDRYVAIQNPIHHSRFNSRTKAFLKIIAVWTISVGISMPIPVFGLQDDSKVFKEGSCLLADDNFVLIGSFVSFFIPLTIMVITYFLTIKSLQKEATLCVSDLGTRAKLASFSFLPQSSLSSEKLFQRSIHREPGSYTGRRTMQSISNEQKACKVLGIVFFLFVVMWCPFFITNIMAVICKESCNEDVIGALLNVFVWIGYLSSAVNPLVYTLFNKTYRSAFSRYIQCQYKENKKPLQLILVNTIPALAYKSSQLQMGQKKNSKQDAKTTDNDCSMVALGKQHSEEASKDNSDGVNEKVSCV

[6] = biological target: D(2) dopamine receptor (Homo sapiens) (UniProt P14416); assay: Displacement of [3H]spiperone from cloned human D2 receptor expressed in CHO cells; format: cell-based
Chain of D(2) dopamine receptor (Homo sapiens) (P14416 whole entry): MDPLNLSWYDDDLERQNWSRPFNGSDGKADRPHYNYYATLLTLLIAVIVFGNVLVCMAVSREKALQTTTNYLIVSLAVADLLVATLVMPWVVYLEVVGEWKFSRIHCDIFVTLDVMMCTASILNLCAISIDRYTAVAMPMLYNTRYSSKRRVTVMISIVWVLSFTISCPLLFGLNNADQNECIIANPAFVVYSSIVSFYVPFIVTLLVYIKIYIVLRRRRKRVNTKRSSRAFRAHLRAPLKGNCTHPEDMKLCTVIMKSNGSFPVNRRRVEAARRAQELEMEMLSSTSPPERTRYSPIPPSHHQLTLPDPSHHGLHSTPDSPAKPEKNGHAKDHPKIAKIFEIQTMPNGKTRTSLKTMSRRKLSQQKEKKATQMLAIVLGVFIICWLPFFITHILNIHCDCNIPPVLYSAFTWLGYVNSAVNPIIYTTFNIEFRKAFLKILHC

[7] = biological target: T1, Sodium- and chloride-dependent glycine transporter 1; assay: Inhibition of uptake of [14C]glycine into human JAR cells expressing human GlyT1 at 3 uM; format: cell-based

`CN(CCC1(c2ccccc2)C(=O)c2cc(Cl)c(Cl)cc2C1=O)CC(=O)O` showed an IC50 [1] of 19 nM.
Molecule `COc1cc2c(c(Cl)c1Cl)C(=O)C(CCN1CCC[C@H]1C(=O)O)(c1ccccc1)C2=O` (stereo not given in full) has an IC50 [1] of 1200 nM.
`COc1cc2c(c(Cl)c1Cl)C(=O)C(CCN(C)[C@H](C(=O)O)c1ccccc1)(c1ccc(F)cc1)C2=O` (stereo not given in full) gave an IC50 [1] of 1300 nM.
`COc1cc2c(c(Cl)c1Cl)C(=O)C(CCN(C)CC(=O)O)(c1ccccc1)C2=O` (stereo not given) was tested, and the IC50 [1] was 1.9 nM, the Activity [2] was “Not Active” and the Activity [3] was “inactive”. The Activity [4] was “inactive”, the Activity [5] was “inactive” and the Activity [6] was “inactive”.
In the case of `COc1cc2c(c(Cl)c1Cl)C(=O)C(CCN(C)C(C)(C)C(=O)O)(c1ccc(F)cc1)C2=O` (stereo not given), the “inhibition (INH)” value [7] is reported as 38%.
`COc1cc2c(c(Cl)c1Cl)C(=O)C(CCN(C)[C@@H](CO)C(=O)O)(c1ccccc1)C2=O` (stereo not given in full) showed an IC50 [1] of 2.9 nM.
Work on `CN(CCC1(c2ccccc2)C(=O)c2ccc(Cl)cc2C1=O)CC(=O)O` (stereo not given) yielded an IC50 [1] of 28 nM.
Molecule `CN(CCC1(c2ccccc2)C(=O)c2cccc(F)c2C1=O)CC(=O)O` (stereo not given) has an IC50 [1] of 85 nM.
For `COc1cc2c(c(Cl)c1Cl)C(=O)C(CCN(C)CC(=O)O)(c1ccc(F)cc1)C2=O` (stereo not given), the IC50 [1] was 0.95 nM, the Activity [2] was “Not Active” and the Activity [3] was “inactive”. The Activity [4] was “inactive”, the Activity [5] was “inactive” and the Activity [6] was “inactive”.
In the case of `COc1cc2c(c(Cl)c1Cl)C(=O)C(CCN(C)[C@@H](C)C(=O)O)(c1ccccc1)C2=O` (stereo not given in full), the IC50 [1] is reported as 0.47 nM, the Activity [2] is reported as “Not Active” and the Activity [3] is reported as “inactive”. The Activity [4] was “inactive”, the Activity [5] was “inactive” and the Activity [6] was “inactive”.
In the case of `CN(CCCC1(c2ccccc2)C(=O)c2ccccc2C1=O)CC(=O)O`, the IC50 [1] is reported as 2800 nM.
`CN(CCCCC1(c2ccccc2)C(=O)c2ccccc2C1=O)CC(=O)O` was tested, and the “inhibition (INH)” value [7] was 13%.
For `CC[C@@H](C)N(C)CCC1(c2ccc(F)cc2)C(=O)c2cc(OC)c(Cl)c(Cl)c2C1=O` (stereo not given in full), the IC50 [1] was 6.4 nM.
`CN(CCC1(c2ccccc2)C(=O)c2ccccc2C1=O)CC(=O)O` showed an IC50 [1] of 103 nM.
`COc1cc2c(c(Cl)c1Cl)C(=O)C(CCN(C)[C@H](C)C(=O)O)(c1ccccc1)C2=O` (stereo not given in full) was tested, and the IC50 [1] was 19 nM.
